Structures are written as SMILES.

The subject of one data set is Adoxophyes orana fasciata. As to the kind of experiment: Test Example 7: sprayed apple tree, Adoxophyes orana fasciata larvae released. The note with it: in vivo. Here is the method:
The formulations of Compounds of Present Invention 1 to 5, 8 to 14, 18, 19, 25, 26, 54, 55, 60, 68 to 74, 76 to 78, 85, 86, 88 and 90 and Intermediate Compounds M6-8 to M6-13 as obtained in Formulation Example 5 were diluted with water, so as to have a concentration of the active ingredient of 500 ppm, to prepare a diluted liquid for test.
On the other hand, an apple tree was planted in a plastic cup, and grown until the seventh-eighth true leaf was spread. To the apple tree was sprayed in an amount of 20 mL/cup of the diluted liquid for test. After the drug solution was dried, 60 first-instar Adoxophyes orana fasciata were released, and the plastic cup the bottom of which was cut off and on which a filter paper was put was upside-down and covered. After 7 days, the number of surviving insects was counted, and the mortality was calculated according to the following equation:
Mortality (%)=(Number of dead insects/Number of tested insects)×100.
Usually mortality stands for the percentage killed. Regarding `CCSc1cc(C(F)(F)F)ccc1C(=O)N(C)c1ccc(OC(F)(F)F)c(Br)c1` [compound 60], the mortality worked out at 100%.
Same read-out and setting: the value for `CCSc1ccccc1C(=O)N(C)c1ccc(C(F)(F)C(F)(F)F)cc1` [compound 18] was 100%.
The same measure, in the same setting: in the case of `CCSc1cc(C(F)(F)F)ccc1C(=O)Nc1ccc(C(F)(F)F)cc1` [Intermediate Compound M6-1, 2-ethylsulfanyl-4-trifluoromethyl-N-(4-trifluoromethyl-phenyl)-benzamide] it was 100%; in that of `CCS(=O)(=O)c1ccccc1C(=O)N(C)c1ccc(SC(F)(F)F)cc1` [compound 26], 100%; in that of `CCS(=O)(=O)c1cc(C(F)(F)F)ccc1C(=O)N(C)c1ccc(C(F)(F)C(F)(F)F)cc1` [compound 10], 100%.
Still for that read-out and setting: the value for `CCSc1ccccc1C(=O)N(C)c1ccc(SC(F)(F)F)cc1` [compound 19] was 100%.
Consider `CCS(=O)(=O)c1ccccc1C(=O)N(C)c1ccc(C(F)(F)C(F)(F)F)cc1` [compound 25], for which the mortality is 100%.
Same read-out and setting: in the case of `CCSc1cc(C(F)(F)F)ccc1C(=O)N(C)c1ccc(C(F)(F)F)c(Cl)c1` [compound 68] it was 100%.

The next data set deals with Musca domestica. Put plainly: Test Example 8: treated filter paper with sucrose bait, Musca domestica. The data set is classed as in vivo. The note with it: 0.7 ml on filter paper, female imagoes of Musca domestica, after 24 hours. The protocol:
Each of formulations of Compounds of Present Invention 1 to 5, 10, 18, 19, 25, 26, 60 and 68 and Intermediate Compound M6-1 as obtained in Formulation Example 5 was diluted with water, so as to have a concentration of the active ingredient of 500 ppm, to prepare a diluted liquid for test.
A filter paper having a diameter of 5.5 cm was spread on the bottom of a polyethylene cup having the same diameter and 0.7 ml of the diluted liquid for test was added dropwise onto the filter paper, and 30 mg of sucrose was uniformly placed as bait. Into the polyethylene cup, 10 female imagoes of Musca domestica were released, and the cup was sealed with a lid. After 24 hours, the life and death of Musca domestica was examined, and the mortality was calculated.
`CCSc1cc(C(F)(F)F)ccc1C(=O)Nc1ccc(C(F)(F)F)cc1` [Intermediate Compound M6-1, 2-ethylsulfanyl-4-trifluoromethyl-N-(4-trifluoromethyl-phenyl)-benzamide] displayed a mortality at 500 ppm of 100%.

The test system of another data set is Blattella germanica. As to the kind of experiment: Test Example 9: treated filter paper with sucrose bait, Blattella germanica. The data set is classed as in vivo. The following applies: 500 ppm, 0.7 ml on filter paper, male imagoes of Blattella germanica, after 6 days. The protocol: The formulations of Compounds of Present Invention 3, 10 and 11 as obtained in Formulation Example 5 were diluted with water, so as to have a concentration of the active ingredient of 500 ppm, to prepare a diluted liquid for test.
A filter paper having a diameter of 5.5 cm was spread on the bottom of a polyethylene cup having the same diameter and 0.7 ml of the diluted liquid for test was added dropwise onto the filter paper, and 30 mg of sucrose was uniformly placed as bait. Into the polyethylene cup, 2 male imagoes of Blattella germanica were released, and the cup was sealed with a lid. After 6 days, the life and death of Blattella germanica was examined, and the mortality was calculated.
`CCS(=O)(=O)c1cc(C(F)(F)F)ccc1C(=O)N(C)c1ccc(SC(F)(F)F)cc1` [compound 11] registered a mortality of 100%.
The same measure, in the same setting: the value for `CCS(=O)(=O)c1cc(C(F)(F)F)ccc1C(=O)N(C)c1ccc(C(F)(F)C(F)(F)F)cc1` [compound 10] was 100%.

The test system of a further data set is Culex pipiens pallens. As to the kind of experiment: Test Example 10: Culex pipiens pallens larvae in treated water. The data set is classed as in vivo. The note with it: 24 h; active ingredient concentration 3.5 ppm in water, last-instar larvae of Culex pipiens pallens, one day later. The protocol: The formulations of Compounds of Present Invention 1 to 5, 8 to 11, 13, 18, 19, 25, 26, 44, 53 to 55, 59, 60, 68 to 74, 78, 86 to 88 and 90 and Intermediate Compounds M6-3, M6-4, M6-11, M6-12 and M6-23 as obtained in Formulation Example 5 were diluted with water, so as to have a concentration of the active ingredient of 500 ppm, to prepare a diluted liquid for test.
0.7 ml of the diluted liquid for test was added to 100 ml of ion-exchanged water (active ingredient concentration: 3.5 ppm). 20 last-instar larvae of Culex pipiens pallens were released into the solution. One day later, the life and death of the Culex pipiens pallens was examined, and the mortality of the pest was calculated.
Molecule `CCSc1cc(C(F)(F)F)ccc1C(=O)Nc1ccc(SC(F)(F)F)cc1` [Intermediate Compound M6-4, 2-ethylsulfanyl-N-(4-trifluoromethylsulfanyl-phenyl)-4-trifluoromethyl-benzamide] came in with a mortality at 3.5 ppm not below 95%.
Still for that read-out and setting: the value for `CCSc1cc(C(F)(F)F)ccc1C(=O)Nc1ccc(C(F)(F)C(F)(F)F)cc1` [Intermediate Compound M6-3, 2-ethylsulfanyl-N-(4-pentafluoroethyl-phenyl)-4-trifluoromethyl-benzamide] was not below 95%.

(Values after patent US20150336881A1, “AMIDE COMPOUND AND USE THEREOF FOR PEST CONTROL” (Sumitomo Chemical Company, Limited, priority 2012, published 2015).)
